# Data as given in patent publication US20100304972A1, “HERBICIDE COMPOSITION” (priority 2007, published 2010).
# Columns and labels:
# Assay type in all cases: in vivo
# [1] = test system: Stellaria media; test: Test Example 2: spray on plants from above ten days after sowing, herbicidal activity; conditions: sprayed on plants ten days after sowing, 21 days after treatment, scale 0-10
# Description: (§1) The phytotoxicity to a crop is evaluated by indicating “harmless” in case that no or little phytotoxicity is recognized, “light” in case that light phytotoxicity is recognized, “medium” in case that medium phytotoxicity is recognized, or “severe” in case that severe phytotoxicity is recognized.
# (§2) Field soil was filled in a plastic pot of 32 cm wide, 22 cm long and 8 cm high, and seeds of wheat (species: Norin No. 61), Sinapis arvensis, and Stellaria media were sowed thereon.
# (§3) The plants were raised in a greenhouse and herbicidal activity and phytotoxicity were determined 21 days after the chemical treatment.
# [2] = test system: Cyperus esculentus; test: Test Example 4: soil spray on day of planting tubers, herbicidal activity; conditions: 14 days after treatment, scale 0-10
# Excerpt: Field soil was filled in a plastic pot of 32 cm wide, 22 cm long and 8 cm high, and tubers of Cyperus esculentus were planted.
# On the day of planting, each of an imazosulfuron suspension formulation (a 40% imazosulfuron-containing suspension formulation, trade name: Sibatite 40 manufactured by Sumitomo Chemical Co., Ltd.), a pendimethalin emulsifiable concentrate (a 30% pendimethalin-containing emulsifiable concentrate, trade name: Go-go-san 30 manufactured by BASF) and a mixed formulation prepared by mixing the imazosulfuron suspension formulation and the pendimethalin emulsifiable concentrate was diluted with water and uniformly sprayed on the soil with a small sprayer so that their amounts became those as shown in Table 4.
# The plants were raised in a greenhouse and herbicidal activity was determined 14 days after the chemical treatment.
# [3] = test system: Sinapis arvensis; test: Test Example 2: spray on plants from above ten days after sowing, herbicidal activity; conditions: sprayed on plants ten days after sowing, 21 days after treatment, scale 0-10
# [4] = test system: Chenopodim album; test: as above; conditions: sprayed on plants ten days after sowing, 21 days after treatment, scale 0-10
# [5] = test system: wheat (species: Norin No. 61); test: Test Example 2: spray on plants from above ten days after sowing, phytotoxicity to crop; conditions: 800 g/ha, sprayed on plants ten days after sowing, 21 days after treatment
# Description: as §1, §2, §3
Compound,Herbicidal activity Sm ([1]; 800 g/ha),Herbicidal activity ([2]; 50 g/ha),Herbicidal activity ([2]; 200 g/ha),Herbicidal activity Sa ([3]; 800 g/ha),Herbicidal activity Ca ([4]; 800 g/ha),Phytotoxicity Wheat [5],Herbicidal activity Sm ([1]; 100 g/ha),Herbicidal activity ([2]; 25 g/ha),Herbicidal activity Sa ([3]; 100 g/ha),Herbicidal activity Ca ([4]; 100 g/ha)
"CCC(CC)Nc1c([N+](=O)[O-])cc(C)c(C)c1[N+](=O)[O-] [Pendimethalin, N-(1-ethylpropyl)-3,4-dimethyl-2,6-dinitrobenzenamine]",9,0,0,2,5,harmless,–,–,–,–
"COc1cc(OC)nc(NC(=O)NS(=O)(=O)c2c(Cl)nc3ccccn23)n1 [Imazosulfuron, 1-(2-chloroimidazo[1,2-a]pyridin-3-ylsulfonyl)-3-(4,6-dimethoxypyrimidin-2-yl)urea]",–,–,–,–,–,–,10,4,10,3
